Like-named read-outs stand apart in the source and are kept apart here.
Key:
Avi-tagged FL MALT-1 = Avi-tagged FL MALT-1 (Homo sapiens (Human), UniProt Q9UDY8); assay: MALT-1 Fluorogenic Peptide Cleavage Assay (MALT1 inhibition assay); format: biochemical; details: Ac-LRSR-AMC peptide substrate, 30 min pre-incubation, 90 min reaction at room temperature
Experimental: Inhibition of MALT1 activity by the presence of small molecules was evaluated using MALT-1 Fluorogenic Peptide Cleavage Assay. The assay utilizes a quenched AMC-labelled peptide that contains the MALT-1 recognition sequence and cleavage site (LRSR). MALT-1 mediated cleavage of the peptide relieves the quenching and leads to an increase in fluorescence at excitation (342 nm) and emission (441 nm).
The following reagents were obtained commercially and used to prepare standard reagent formulations as further described below: N-2-hydroxyethylpiperazine-N-2-ethane sulfonic acid (HEPES) (1 M, pH 7.5, stored at 4° C.), sodium citrate (stored at RT), tris(2-carboxyethyl) phosphine hydrochloride (T-CEP) (500 mM, stored at −20° C.), ethylenediaminetetraacetic acid (EDTA) (500 mM, stored at RT), dimethylsulfoxide (DMSO, stored at RT), 3-[(3-cholamido-propyl)dimethylammonio]-1-propane sulphate (CHAPS) (stored at RT), dimethylsulfoxide (DMSO), DMSO (Fisher Scientific, stored at RT), Avi-tagged FL MALT-1 (Pharmaron, stored at −70° C.), Ac-LRSR-AMC Peptide (SM Biochemicals, stored at −20° C.)., and ultrapure water (MILLLI-Q©).
The standard reagent formulations used in this assay were prepared and stored as follows. A 1.1 M solution of sodium citrate (161.3 g, 500 mL) was prepared and stored at room temperature. A 10% (w/v) CHAPS solution (2.0 g, 20 mL) was prepared and stored at 4° C. A 500 mM HEPES solution having pH of 6.89 was prepared from 200 mL of a 1 M HEPES solution having a pH of 7.5 using concentrated hydrochloric acid and brought to a final volume of 400 mL with MILLI-Q© H2O. The substrate, 10 mM Ac-LRSR-AMC Peptide, was prepared (10 mg, 1.370 mL DMSO) and stored at −20° C.
Compounds were plated to provide a 2% DMSO final concentration using a ProxiPlate-384 Plus F Black 384-shallow well microplate. The assay-ready plates were equilibrated to room temperature. A reaction buffer (30 mL total volume) was prepared by combining HEPES (pH 6.89, 25 mM, 1.5 mL), sodium citrate (660 mM, 18.0 mL), T-CEP (1 mM, 0.06 mL), EDTA ([…], 0.06 mL), CHAPS (0.05%, 0.15 mL), DMSO (2%, 0.6 mL), and MILLI-Q© H2O (10.23 mL; 9.63 mL when backfilled to 2% DMSO) followed by thorough mixing. DMSO was added only when compound plates had not been DMSO-backfilled to 2%.
MALT-1 was thawed and kept on ice. Peptide substrate was thawed on the bench under ambient conditions. A MALT-1 enzyme working stock was prepared from Avi-tagged FL MALT-1 (40 nM in a prepared reagent volume of 16.5 μL) and the reaction buffer (13.0 mL). MALT1 working stock (5 μL) was added to each well of the microplate. MALT-1 was pre-incubated with compounds for 30 minutes at room temperature.
Two substrate working stocks (Km and 10×Km) were prepared. The 1×Km substrate was prepared from Ac-LRSR-AMC Peptide (50 μM in a prepared reagent volume of 35.0 μL) and the reaction buffer (6.965 mL). The 10×Km substrate was prepared from Ac-LRSR-AMC Peptide (280 μM in a prepared reagent volume of 196.0 μL) and the reaction buffer (6.804 mL). The reaction was initiated by the addition of substrate working stock (5 μL, 50 μM) to Km plates and the addition of substrate working stock (5 μL 280 μM) to 10×Km plates. The plates were covered and incubated on the bench at room temperature for 90 minutes.
Fluorescence intensity was determined using a CLARIOstar microplate reader (BMG LABTECH) using the optimised AMC mode. Before taking readings, a 70% gain was applied on the neutral control well. Compound data were normalised to % Inhibition and used to plot sigmoidal concentration response curves to yield various parameters including IC50.

[1] = tested on: NF-kB reporter in Jurkat cells; assay: NF-kB reporter assay in Jurkat cells stimulated with aCD3/aCD28/PMA; format: cell-based; details: Homo sapiens, read-out: NF-kB Reporter Assay IC50
Experimental: Jurkat cells were maintained in complete RPMI 1640 media supplemented with 10% FBS. Prior to the assay, 120 nL of the serial diluted compound was added in each well of 384-well flat bottom white plate (Corning #3570) by using liquid handler Echo550. Jurkat cells were harvested by centrifugation at 120 g for 10 min and resuspended in fresh RPMI 1640 media without serum. […] (25,000 cells) were seeded in each well of 384-well plate containing compound. After 1 hr incubation at 37° C. in a 5% CO2 incubator, […] of diluted aCD3/aCD28/PMA (final concentration at […] and […], respectively) in RPMI 1640 without serum were added to each well. After incubation at 37° C. in 5% CO2 for 4 hr, […] of One-Glo reagent (Promega #E6120) was added into each well. The plate was left at room temperature for 5 min and the signal was measured on EnVision (PerkinElmer).
Compounds in which an IC50 was not measured are designated as “N/A”.

[2] = Jurkat cells, 1 hr compound pre-incubation, aCD3/aCD28/PMA stimulation 4 hr, One-Glo readout

Avi-tagged FL MALT-1, sequence (Q9UDY8 whole entry): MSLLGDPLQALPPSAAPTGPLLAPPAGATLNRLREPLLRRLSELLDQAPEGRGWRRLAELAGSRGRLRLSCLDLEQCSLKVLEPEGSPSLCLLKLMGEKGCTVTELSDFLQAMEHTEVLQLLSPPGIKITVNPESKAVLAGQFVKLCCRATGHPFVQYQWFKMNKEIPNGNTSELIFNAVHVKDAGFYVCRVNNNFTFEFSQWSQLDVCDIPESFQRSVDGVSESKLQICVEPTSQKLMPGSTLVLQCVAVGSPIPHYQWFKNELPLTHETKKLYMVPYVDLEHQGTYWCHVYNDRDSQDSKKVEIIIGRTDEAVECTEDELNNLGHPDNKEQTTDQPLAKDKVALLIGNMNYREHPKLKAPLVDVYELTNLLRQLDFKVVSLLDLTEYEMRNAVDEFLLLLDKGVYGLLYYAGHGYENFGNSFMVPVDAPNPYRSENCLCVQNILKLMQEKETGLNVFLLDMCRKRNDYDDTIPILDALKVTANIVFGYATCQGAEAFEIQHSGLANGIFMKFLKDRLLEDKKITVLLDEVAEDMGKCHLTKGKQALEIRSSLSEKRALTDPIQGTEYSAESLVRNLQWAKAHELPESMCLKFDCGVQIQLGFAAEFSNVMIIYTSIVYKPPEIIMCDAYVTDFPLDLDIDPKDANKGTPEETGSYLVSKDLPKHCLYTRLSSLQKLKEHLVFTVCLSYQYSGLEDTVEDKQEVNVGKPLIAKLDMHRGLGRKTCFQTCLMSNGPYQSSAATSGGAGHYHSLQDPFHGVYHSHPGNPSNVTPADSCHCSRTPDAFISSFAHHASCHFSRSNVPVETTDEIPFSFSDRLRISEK

SMILES	IC50 (Avi-tagged FL MALT-1)	IC50 [1, 2]	IC50 ([1]; Jurkat)
CN1C[C@@H](n2cc(S(=O)(=O)Nc3cccc4cnn(C)c34)cn2)CCC1=O [Compound I-351]	> 2500 nM	> 2500 nM	
O=S(=O)(c1cnn(-c2cc(C(F)(F)F)ccn2)c1)N1CCn2ncc3cccc1c32 [Compound I-355, 1-((1-(4-(trifluoromethyl)pyridin-2-yl)-1H-pyrazol-4-yl)sulfonyl)-2,3-dihydro-1H-pyrazolo[1,5,4-de]quinoxaline]	> 2500 nM		> 2500 nM
C=C(CO)c1ccnc(-n2cc(S(=O)(=O)Nc3c(OC)ccc4cnn(C)c34)cn2)c1 [Compound I-68, 1-(4-(3-Hydroxyprop-1-EN-2-yl)Pyridin-2-yl)-N-(6-Methoxy-1-Methyl-1H-Indazol-7-yl)-1H-Pyrazole-4-Sulfonamide]	≤ 400 nM	< 400 nM	
C[C@H]1CN(C)C(=O)N1c1ccnc(-n2cc(S(=O)(=O)Nc3cccc4cnn(C)c34)cn2)c1 [Compound I-349]	> 2500 nM	< 400 nM	
COCC(O)(COC)c1ccnc(-n2cc(S(=O)(=O)Nc3cccc4cnn(C)c34)cn2)c1 [Compound I-257, 1-(4-(2-Hydroxy-1,3-Dimethoxypropan-2-yl)Pyridin-2-yl)-N-(1-Methyl-1H-Indazol-7-yl)-1H-Pyrazole-4-Sulfonamide]	> 2500 nM	1000 to 2500 nM	
Cn1ncc2cccc(NS(=O)(=O)c3cnn(-c4cc(N5CC6CC(C6)C5)ccn4)c3)c21 [Compound I-389, 1-(4-(3-Azabicyclo[3.1.1]Heptan-3-yl)Pyridin-2-yl)-N-(1-Methyl-1H-Indazol-7-yl)-1H-Pyrazole-4-Sulfonamide]	> 2500 nM	< 400 nM	
COc1ccc2cnn(C)c2c1NS(=O)(=O)c1cnn(-c2cncc(C(F)(F)F)c2)c1 [Compound I-23, N-(6-Methoxy-1-Methyl-1H-Indazol-7-yl)-1-(5-(Trifluoromethyl)Pyridin-3-yl)-1H-Pyrazole-4-Sulfonamide]	≤ 400 nM	< 400 nM	
Cn1ncc2cccc(NS(=O)(=O)c3cnn(-c4cc(C5CCO5)ccn4)c3)c21 (stereo not shown) [Compound I-265, N-(1-methylindazol-7-yl)-1-[4-(oxetan-2-yl)pyridin-2-yl]pyrazole-4-sulfonamide]	> 2500 nM	< 400 nM	
Cn1ncc2cccc(NS(=O)(=O)c3cnn(-c4cc(C5CCOCC5)ccn4)c3)c21 [Compound I-123, N-(1-methyl-1H-indazol-7-yl)-1-(4-(tetrahydro-2H-pyran-4-yl)pyridin-2-yl)-1H-pyrazole-4-sulfonamide]	> 2500 nM	< 400 nM	
COc1ncc2cnn(C)c2c1NS(=O)(=O)c1cnn(-c2cc(N3CC4CC(C4)C3)ccn2)c1 [Compound I-406]	> 2500 nM	< 400 nM	
Cn1ncc2cccc(NS(=O)(=O)c3cnn(-c4cc([C@]5(F)CCOC5)ccn4)c3)c21 [Compound I-335]	> 2500 nM	< 400 nM	
COC(C)(C)c1ccnc(-n2cc(S(=O)(=O)Nc3cccc4cnn(C)c34)cn2)c1 [Compound I-114, 1-(4-(2-Methoxypropan-2-yl)Pyridin-2-yl)-N-(1-Methyl-1H-Indazol-7-yl)-1H-Pyrazole-4-Sulfonamide]	> 2500 nM	< 400 nM	
COc1ncc2cnn(C)c2c1NS(=O)(=O)c1cnn(-c2cc(C(F)(F)F)nn2C)c1 [Compound I-241]	> 2500 nM	> 2500 nM	
COCC(COC)(OC)c1ccnc(-n2cc(S(=O)(=O)Nc3cccc4cnn(C)c34)cn2)c1 [Compound I-259, N-(1-methyl-1H-indazol-7-yl)-1-(4-(1,2,3-trimethoxypropan-2-yl)pyridin-2-yl)-1H-pyrazole-4-sulfonamide]	> 2500 nM	1000 to 2500 nM	
CN1CCC[C@H](n2cc(S(=O)(=O)Nc3cccc4cnn(C)c34)cn2)C1 [Compound I-309]	> 2500 nM	> 2500 nM	
COc1ccc2cnn(C)c2c1NS(=O)(=O)c1cnn(-c2cc(C(F)F)ccn2)c1 [Compound I-133, 1-(4-(Difluoromethyl)Pyridin-2-yl)-N-(6-Methoxy-1-Methyl-1H-Indazol-7-yl)-1H-Pyrazole-4-Sulfonamide]	≤ 400 nM	< 400 nM	

More lines, main results first:

IC50 (Avi-tagged FL MALT-1)	IC50 [1, 2]	SMILES	IC50 ([1]; Jurkat)
> 2500 nM	400 to 1000 nM	Cn1ncc2cccc(NS(=O)(=O)c3cnn(-c4cnn5c4COCCC5)c3)c21 [Compound I-447, 1-(7,8-Dihydro-4H,6H-Pyrazolo[5,1-C][1,4]Oxazepin-3-yl)-N-(1-Methyl-1H-Indazol-7-yl)-1H-Pyrazole-4-Sulfonamide]	
> 2500 nM	< 400 nM	Cn1ncc2cccc(NS(=O)(=O)c3cnn(-c4cc(N5CCC(F)(F)C5)ccn4)c3)c21 [Compound I-431, 1-[4-(3,3-difluoropyrrolidin-1-yl)pyridin-2-yl]-N-(1-methylindazol-7-yl)pyrazole-4-sulfonamide]	
400 to 1000 nM	< 400 nM	COc1ncc2cnn(C)c2c1NS(=O)(=O)c1cnn(-c2cc(N3CCCC3)ccn2)c1 [Compound I-398, N-{6-methoxy-1-methylpyrazolo[4,3-c]pyridin-7-yl}-1-[4-(pyrrolidin-1-yl)pyridin-2-yl]pyrazole-4-sulfonamide]	
> 2500 nM	< 400 nM	COc1ncc2cnn(C)c2c1NS(=O)(=O)c1cnn(-c2cc(N3CC[C@H](F)C3)ccn2)c1 [Compound I-426]	
1000 to 2500 nM	< 400 nM	[2H]c1nn(C([2H])([2H])[2H])c2c(NS(=O)(=O)c3cnn(-c4cc(C(C)(F)F)ccn4)c3)cccc12 [Compound I-380, 1-(4-(1,1-difluoroethyl)pyridin-2-yl)-N-(1-(methyl-d3)-1H-indazol-7-yl-3-d)-1H-pyrazole-4-sulfonamide]	
> 2500 nM	< 400 nM	C[C@H]1CCN(c2ccnc(-n3cc(S(=O)(=O)Nc4cccc5cnn(C)c45)cn3)c2)C1 [Compound I-400, N-(1-methylindazol-7-yl)-1-{4-[(3S)-3-methylpyrrolidin-1-yl]pyridin-2-yl} pyrazole-4-sulfonamide]	
≤ 400 nM	< 400 nM	CCC(C)(OC)c1ccnc(-n2cc(S(=O)(=O)Nc3c(OC)ccc4cnn(C)c34)cn2)c1 (single isomer, unassigned) [Compound I-360, N-(6-methoxy-1-methyl-1H-indazol-7-yl)-1-(4-(2-methoxybutan-2-yl)pyridin-2-yl)-1H-pyrazole-4-sulfonamide]	

Source: patent US20240150321A1, “PYRAZOLYLSULFONAMIDE COMPOUNDS AND THEIR USE IN THERAPY” (HOTSPOT THERAPEUTICS, INC., priority 2022, published 2024)
